Data reported in US6784165B1, “Treatment of heart rhythm disturbances with N6-substituted-5′-(N-substituted) carboxamidoadenosines” (Aderis Pharmaceuticals, Inc., priority 1999, dated 2004).

Assays:
adenosine A1 receptor [1] = test: Rat isolated Langendorff heart paced at 360 bpm: AV conduction (S-V interval) and coronary blood flow; conditions: at 6.8 nM and 8.3 nM, rat isolated heart
Description: (§1) Rat isolated hearts were prepared according to the method of Langendorff in which the coronary vasculature was perfused in a retrograde fashion at constant pressure via the aorta. Coronary blood flow was determined by measuring the volume of fluid leaving the heart. Heart rate was maintained at 360 beats per minute by electrical pacing of the right atrium. Atrioventricular (AV) conduction was determined as the time from the atrial stimulus to the beginning of ventricular depolarization (S-V interval).

adenosine A1 receptor [2] = target: T1, adenosine A1 receptor (Rattus norvegicus, UniProt P25099); test: Negative inotropic response in electrically stimulated rat isolated left atria (isoproterenol-stimulated); parameters: from tissue; host or cells: whole animal (conscious Sprague-Dawley rats); conditions: plateau negative inotropic response, 1 Hz, isoproterenol 10^−8 M
T1 sequence (P25099 1-326): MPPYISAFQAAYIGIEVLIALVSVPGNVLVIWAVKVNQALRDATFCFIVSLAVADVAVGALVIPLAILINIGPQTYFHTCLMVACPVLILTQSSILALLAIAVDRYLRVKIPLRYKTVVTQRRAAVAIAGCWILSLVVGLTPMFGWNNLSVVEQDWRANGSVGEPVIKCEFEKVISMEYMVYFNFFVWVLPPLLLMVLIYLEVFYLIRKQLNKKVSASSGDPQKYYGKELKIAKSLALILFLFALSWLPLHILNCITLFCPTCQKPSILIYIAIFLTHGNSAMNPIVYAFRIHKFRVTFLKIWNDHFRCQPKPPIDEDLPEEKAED
Excerpt: (§2) Concentration dose-effect curve data were fitted to a sigmoid curve using Graphpad PRIZM™ software to obtain the concentration or dose of test compound that produces 50% of the maximal obtainable response, in vitro EC50 or in vivo ED50 values, for activation of the adenosine A1 receptor. Responses measured to each dose were the plateau negative inotropic response to cumulative additions of test compound in the isolated left atria and the peak bradycardia in response to bolus intravenous injections of test compound in conscious rats. Oral bioavailability was estimated from pharmacodynamic responses using the expression: (Response AUCoral/Response AUCiv)(Doseiv/Doseoral), where Response AUC is the area under the curve for test compound-induced bradycardia over time.
Male Sprague-Dawley rats weighing 200-350 grams were sacrificed and the hearts rapidly removed and placed in a warmed Krebs-Henseleit buffer solution. The left atria were dissected free from the hearts and suspended in 30 mL jacketed isolated organ baths filled with Krebs-Henseleit buffer, oxygenated with 95% O2/5% CO2 and maintained at 37° C. Tissues were connected to a force displacement transducer under a resting tension of 1 gram. Atria were stimulated electrically at 1 Hz, 1 msec duration and supramaximal voltage to produce regular contractions of tissue.
Adenosine A1 agonists were added to the baths at increasing cumulative concentrations until a maximal decrease in the force of contraction was obtained. Because adenosine A1 agonists have only a small direct negative inotropic action in rat atria, it was necessary to stimulate β-adrenergic receptors to produce positive inotropy in order to maximize the negative intropic response and thereby facilitate measurement. Under these conditions, adenosine A1 agonists acting at A1 receptors indirectly reduce the β-adrenergic mediated positive inotropy. Accordingly, the β-adrenergic agonist isoproterenol (10^−8 M) was added to the organ baths approximately 15 minutes before the addition of the adenosine A1 agonist.

adenosine A1 receptor [3] = target: T1, adenosine A1 receptor; test: Peak bradycardia after bolus intravenous injection in conscious rats; type: in vivo; parameters: from tissue; host or cells: whole animal (conscious Sprague-Dawley rats); conditions: rat, bolus intravenous injections, read-out: ED50
Excerpt: as §2
Male Sprague-Dawley rats were anesthetized with sodium pentobarbital 50 mg/kg i.p., and indwelling catheters were surgically implanted in the carotid artery and jugular vein two days prior to each experiment. During all subsequent experiments, rats were conscious and unrestrained. The carotid artery cannula was attached to a pressure transducer and blood pressure was recorded continuously throughout each experiment using a Grass polygraph. Heart rate was derived from the blood pressure signal using a Grass tachygraph. The measured parameters were allowed from 30 to 90 minutes to stabilize before the administration of test compound.
Test compounds were administered either by oral gavage using a curved, bulbed oral dosing cannula, or by intravenous administration via the jugular vein indwelling catheter. Rats dosed orally were fasted overnight before dosing, with water available ad libitum. Because the heart rate responses following intravenous administration of test compound rapidly returned to baseline, more than one dose of test compound could be administered to each rat. However, the responses to oral administration of test compounds were of a prolonged duration and therefore only a single dose could be administered to each rat.

adenosine A1 receptor [4] = target: T1, adenosine A1 receptor; test: Rat isolated Langendorff heart paced at 360 bpm: AV conduction (S-V interval) and coronary blood flow; parameters: Rat isolated hearts were prepared according to the method of Langendorff; from tissue; host or cells: rat isolated perfused heart (Langendorff); conditions: rat isolated heart paced at 360 beats per minute
Description: as §1

SMILES: CCNC(=O)[C@H]1O[C@@H](n2cnc3c(NC4CCCC4)ncnc32)[C@H](O)[C@@H]1O [Compound A, ethyl N^6-cyclopentyladenosine-5′-uronamide]
- effect on coronary blood flow (adenosine A1 receptor [1]): no effect
- EC50 (adenosine A1 receptor [2]): 15.5 nM
- ED50 (adenosine A1 receptor [3]): 0.0083 µmol/kg
- mean concentration at maximal increase in S-V interval (adenosine A1 receptor [4]): 6.8 nM
- mean concentration for AV conduction blockade (adenosine A1 receptor [4]): 8.3 nM
